In brackets after ≈: the same amount, converted by molar mass. Where two headings read alike, the source gives them in different places.
Key:
Assay type in all cases: cell-based
E. coli 01 = experiment: agar serial dilution test (MIC)
Protocol: (§1) The antibiotic activity in vitro of some compounds according to the invention and of some previously known compounds was tested by means of an agar serial dilution test. The following compounds were tested: 7β-[2-(2-Aminothiazol-4-yl)-2-diethylphosphoryloxyiminoacetamido] cephalosporanic acid (designated ES 643, 7β-[2-(2-amino- thiazol-4-yl)-2-dimethylphosphoryloxyiminoacetamido] cephalosporanic acid (designated ES 671), 7β-[2-(2-amino- thiazol-4-yl)-2-dimorpholinophosphoryloxyiminoacetamido] cephalosporanic acid (designated ES 656), 7β-[2-(2-amino- thiazol-4-yl)-2-methylmethylphosphonyloxyiminoacetamido] cephalosporanic acid (designated ES 682), 7β-[2-(2-amino- thiazol-4-yl)-2-hydroxyiminoacetamido] cephalosporanic acid (designated A), cefuroxime (designated B), and cephalotin (designated C). MIC designates minimum inhibitory concentration.

E. coli 04 = experiment: agar serial dilution test (MIC)
Protocol: as §1

K. edwardsii K1 = experiment: agar serial dilution test (MIC)
Protocol: as §1

K. pneumoniae K8 = experiment: agar serial dilution test (MIC); conditions: Klebsiella pneumoniae
Protocol: as §1

P. mirabilis 2255 = experiment: agar serial dilution test (MIC)
Protocol: as §1

P. mirabilis 2311 = experiment: agar serial dilution test (MIC)
Protocol: as §1

P. mirabilis 682 = experiment: agar serial dilution test (MIC)
Protocol: as §1

P. morganii 18 = experiment: agar serial dilution test (MIC)
Protocol: as §1

P. morganii 69 = experiment: agar serial dilution test (MIC)
Protocol: as §1

P. vulgaris 16868 = experiment: agar serial dilution test (MIC)
Protocol: as §1

P. vulgaris 17028 = experiment: agar serial dilution test (MIC)
Protocol: as §1

P. vulgaris 5209 = experiment: agar serial dilution test (MIC)
Protocol: as §1

S. albus 12228 = experiment: agar serial dilution test (MIC)
Protocol: as §1

S. albus 3348 = experiment: agar serial dilution test (MIC)
Protocol: as §1

S. albus 3578 = experiment: agar serial dilution test (MIC)
Protocol: as §1

S. aureus 13709 = experiment: agar serial dilution test (MIC)
Protocol: as §1

S. aureus 209P = experiment: agar serial dilution test (MIC); conditions: Staphylococcus aureus
Protocol: as §1

S. aureus 3349 = experiment: agar serial dilution test (MIC)
Protocol: as §1

S. aureus 3356 = experiment: agar serial dilution test (MIC)
Protocol: as §1

S. pyogenes 12334 = experiment: agar serial dilution test (MIC)
Protocol: as §1

S. pyogenes 12384 = experiment: agar serial dilution test (MIC)
Protocol: as §1

P. vulgaris ATCC 6897 = experiment: MIC value stated in Example 8; conditions: Proteus vulgaris, ATCC6897; against P. vulgaris ATCC 6897
[1] = Escherichia coli, 01, read-out: MIC value in μg/ml
[2] = Escherichia coli, 04, read-out: MIC value in μg/ml
[3] = K8, read-out: MIC value in μg/ml
[4] = Proteus mirabilis, 2255, read-out: MIC value in μg/ml
[5] = Proteus mirabilis, 2311, read-out: MIC value in μg/ml
[6] = Proteus mirabilis, 682, read-out: MIC value in μg/ml
[7] = Morganella morganii, 18, read-out: MIC value in μg/ml
[8] = Morganella morganii, 69, read-out: MIC value in μg/ml
[9] = Proteus vulgaris, 16868, read-out: MIC value in μg/ml
[10] = Proteus vulgaris, 17028, read-out: MIC value in μg/ml
[11] = Proteus vulgaris, 5209, read-out: MIC value in μg/ml
[12] = Staphylococcus albus, 12228, read-out: MIC value in μg/ml
[13] = Staphylococcus albus, 3348, read-out: MIC value in μg/ml
[14] = Staphylococcus albus, 3578, read-out: MIC value in μg/ml
[15] = Staphylococcus aureus, 13709, read-out: MIC value in μg/ml
[16] = 209P, read-out: MIC value in μg/ml
[17] = Staphylococcus aureus, 3349, read-out: MIC value in μg/ml
[18] = Staphylococcus aureus, 3356, read-out: MIC value in μg/ml
[19] = Streptococcus pyogenes, 12334, read-out: MIC value in μg/ml
[20] = Streptococcus pyogenes, 12384, read-out: MIC value in μg/ml

In the case of `CC(=O)OCC1=C(C(=O)O)N2C(=O)[C@@H](NC(=O)Cc3cccs3)[C@H]2SC1` [C, cephalotin, reference compound], the MIC (E. coli 01; [1]) is reported as 6.2 µg/mL (≈ 15.6 µM), the MIC (E. coli 04; [2]) is reported as 12.5 µg/mL (≈ 31.5 µM) and the MIC (K. edwardsii K1; read-out: MIC value in μg/ml) is reported as 0.2 µg/mL (≈ 0.504 µM). The MIC (K. pneumoniae K8; [3]) was 50 µg/mL (≈ 126 µM), the MIC (P. mirabilis 2255; [4]) was 3.1 µg/mL (≈ 7.82 µM) and the MIC (P. mirabilis 2311; [5]) was 12.5 µg/mL (≈ 31.5 µM). The MIC (P. mirabilis 682; [6]) was 6.2 µg/mL (≈ 15.6 µM), the MIC (P. morganii 18; [7]) was over 100 µg/mL and the MIC (P. morganii 69; [8]) was over 100 µg/mL. The MIC (P. vulgaris 16868; [9]) was over 100 µg/mL, the MIC (P. vulgaris 17028; [10]) was over 100 µg/mL and the MIC (P. vulgaris 5209; [11]) was over 100 µg/mL. The MIC (S. albus 12228; [12]) was 0.2 µg/mL (≈ 0.504 µM), the MIC (S. albus 3348; [13]) was under 0.1 µg/mL and the MIC (S. albus 3578; [14]) was under 0.1 µg/mL. For the same compound, the MIC (S. aureus 13709; [15]) was 0.4 µg/mL (≈ 1.01 µM), the MIC (S. aureus 209P; [16]) was under 0.1 µg/mL and the MIC (S. aureus 3349; [17]) was 0.4 µg/mL (≈ 1.01 µM). It also gave an MIC (S. aureus 3356; [18]) of under 0.1 µg/mL, an MIC (S. pyogenes 12334; [19]) of under 0.1 µg/mL and an MIC (S. pyogenes 12384; [20]) of under 0.1 µg/mL.
Work on `CCOP(=O)(OCC)ON=C(C(=O)NC1C(=O)N2C(C(=O)O)=C(COC(C)=O)CSC12)c1csc(N)n1` (stereo not drawn) [ES 643, 7β-[2-(2-Aminothiazol-4-yl)-2-diethylphosphoryloxyiminoacetamido] cephalosporanic acid] yielded an MIC (E. coli 01; [1]) of 0.2 µg/mL (≈ 0.346 µM), an MIC (E. coli 04; [2]) of 0.8 µg/mL (≈ 1.39 µM) and an MIC (K. edwardsii K1; read-out: MIC value in μg/ml) of 0.8 µg/mL (≈ 1.39 µM). For the same compound, the MIC (K. pneumoniae K8; [3]) was 1.6 µg/mL (≈ 2.77 µM), the MIC (P. mirabilis 2255; [4]) was under 0.1 µg/mL and the MIC (P. mirabilis 2311; [5]) was under 0.1 µg/mL. It also gave an MIC (P. mirabilis 682; [6]) of under 0.1 µg/mL, an MIC (P. morganii 18; [7]) of 1.6 µg/mL (≈ 2.77 µM) and an MIC (P. morganii 69; [8]) of 0.2 µg/mL (≈ 0.346 µM). It also gave an MIC (P. vulgaris 16868; [9]) of 0.2 µg/mL (≈ 0.346 µM), an MIC (P. vulgaris 17028; [10]) of 0.2 µg/mL (≈ 0.346 µM) and an MIC (P. vulgaris 5209; [11]) of 0.8 µg/mL (≈ 1.39 µM). For the same compound, the MIC (S. albus 12228; [12]) was 1.6 µg/mL (≈ 2.77 µM), the MIC (S. albus 3348; [13]) was 0.8 µg/mL (≈ 1.39 µM) and the MIC (S. albus 3578; [14]) was 1.6 µg/mL (≈ 2.77 µM). The MIC (S. aureus 13709; [15]) was 3.1 µg/mL (≈ 5.37 µM), the MIC (S. aureus 209P; [16]) was 3.1 µg/mL (≈ 5.37 µM) and the MIC (S. aureus 3349; [17]) was 1.6 µg/mL (≈ 2.77 µM). For the same compound, the MIC (S. aureus 3356; [18]) was 1.6 µg/mL (≈ 2.77 µM), the MIC (S. pyogenes 12334; [19]) was under 0.1 µg/mL and the MIC (S. pyogenes 12384; [20]) was under 0.1 µg/mL.
With `CC(=O)OCC1=C(C(=O)O)N2C(=O)C(NC(=O)C(=NO)c3csc(N)n3)C2SC1` (stereo not drawn) [A, 7β-[2-(2-amino-thiazol-4-yl)-2-hydroxyiminoacetamido] cephalosporanic acid, reference compound] the MIC (E. coli 01; Escherichia coli, E. coli 01, read-out: MIC value) was under 0.1 µg/mL, the MIC (E. coli 04; Escherichia coli, E. coli 04, read-out: MIC value) was 0.2 µg/mL (≈ 0.453 µM) and the MIC (K. edwardsii K1; K. edwardsii K1, read-out: MIC value) was 0.2 µg/mL (≈ 0.453 µM). It also gave an MIC (K. pneumoniae K8; K. pneumoniae K8, read-out: MIC value) of 0.4 µg/mL (≈ 0.906 µM), an MIC (P. mirabilis 2255; Proteus mirabilis, P. mirabilis 2255, read-out: MIC value) of under 0.1 µg/mL and an MIC (P. mirabilis 2311; Proteus mirabilis, P. mirabilis 2311, read-out: MIC value) of under 0.1 µg/mL. It also gave an MIC (P. mirabilis 682; Proteus mirabilis, P. mirabilis 682, read-out: MIC value) of under 0.1 µg/mL, an MIC (P. morganii 18; Morganella morganii, P. morganii 18, read-out: MIC value) of 0.2 µg/mL (≈ 0.453 µM) and an MIC (P. morganii 69; Morganella morganii, P. morganii 69, read-out: MIC value) of 0.2 µg/mL (≈ 0.453 µM). The MIC (P. vulgaris 16868; Proteus vulgaris, P. vulgaris 16868, read-out: MIC value) was 1.6 µg/mL (≈ 3.62 µM), the MIC (P. vulgaris 17028; Proteus vulgaris, P. vulgaris 17028, read-out: MIC value) was 0.8 µg/mL (≈ 1.81 µM) and the MIC (P. vulgaris 5209; Proteus vulgaris, P. vulgaris 5209, read-out: MIC value) was 6.2 µg/mL (≈ 14 µM). It also gave an MIC (S. albus 12228; Staphylococcus albus, S. albus 12228, read-out: MIC value) of 0.8 µg/mL (≈ 1.81 µM), an MIC (S. albus 3348; Staphylococcus albus, S. albus 3348, read-out: MIC value) of 0.8 µg/mL (≈ 1.81 µM) and an MIC (S. albus 3578; Staphylococcus albus, S. albus 3578, read-out: MIC value) of 0.8 µg/mL (≈ 1.81 µM). It also gave an MIC (S. aureus 13709; Staphylococcus aureus, S. aureus 13709, read-out: MIC value) of 1.6 µg/mL (≈ 3.62 µM), an MIC (S. aureus 209P; S. aureus 209P, read-out: MIC value) of 1.6 µg/mL (≈ 3.62 µM) and an MIC (S. aureus 3349; Staphylococcus aureus, S. aureus 3349*, penicillin-resistant strain, read-out: MIC value) of 1.6 µg/mL (≈ 3.62 µM). For the same compound, the MIC (S. aureus 3356; Staphylococcus aureus, S. aureus 3356*, penicillin-resistant strain, read-out: MIC value) was 0.8 µg/mL (≈ 1.81 µM), the MIC (S. pyogenes 12334; Streptococcus pyogenes, S. pyogenes 12334, read-out: MIC value) was under 0.1 µg/mL and the MIC (S. pyogenes 12384; Streptococcus pyogenes, S. pyogenes 12384, read-out: MIC value) was under 0.1 µg/mL.
`COP(=O)(O)ON=C(C(=O)NC1C(=O)N2C(C(=O)O)=C(COC(C)=O)CSC12)c1csc(N)n1` (stereo not shown) [Example 8b] was tested, and the MIC (P. vulgaris ATCC 6897) was 0.2 µg/mL (≈ 0.374 µM).

Source: EP0018155A2, “Novel cephalosporin compounds, a process for the preparation thereof, pharmaceutical compositions containing the same and the use thereof as a therapeutic agent against a microorganism” (NOVO NORDISK A/S, priority 1979, dated 1980)
